Results on 22 molecules are retold here after US8658661B2, “Oxadiazole inhibitors of leukotriene production” (Boehringer Ingelheim International GmbH, priority 2010, dated 2014).

Test [1] addresses T1, recombinant human FLAP protein (Homo sapiens, UniProt P20292).
T1 construct: made in house; host or cells: Sf9 insect cells (100,000×g membrane pellet used)
T1 sequence (P20292 1-161): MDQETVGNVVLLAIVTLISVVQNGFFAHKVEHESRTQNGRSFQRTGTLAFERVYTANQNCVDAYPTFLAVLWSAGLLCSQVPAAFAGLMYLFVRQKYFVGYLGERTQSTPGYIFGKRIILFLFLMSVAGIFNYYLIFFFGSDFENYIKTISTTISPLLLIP
Description: FLAP binding assay (SPA, displacement of [125I]L-691,831). Conditions: membranes of sf9 cells expressing recombinant human FLAP; [125I]L-691,831 probe; read-out: FLAP binding IC50. Here is the method:
Assessment of Biological Properties 1. Binding Assay
Compounds are assessed for the ability to bind to FLAP in a binding assay that measures compound-specific displacement of an iodinated (^125I) FLAP inhibitor via a Scintillation Proximity Assay format (adapted from S. Charleson et al., Mol. Pharmacol., 1992, 41, 873-879).
Cell pellets produced from sf9 insect cells expressing recombinant human FLAP protein are resuspended in buffer A [15 mM Tris-HCl (pH 7.5), 2 mM MgCl2, 0.3 mM EDTA, 1 mM PMSF]. The cells are lysed with a Dounce homogenizer and the material is centrifuged at 10,000×g for 10 minutes. The supernatant is then collected and centrifuged at 100,000×g for 60 minutes. To prepare membrane protein for an assay, an aliquot of the 100,000×g pellet is resuspended in 1 ml of buffer A, Dounce homogenized, and finally subjected to polytron mixing (30 seconds). Membrane protein (25 μl, 5 μg) is mixed with WGA SPA beads (Amersham) and stirred for 1 h. […] (final concentrations: beads, 200 μg/well; protein, 5 μg/well; [^125I] probe, 0 08 nM/well (17 nCi/well). The plates are shaken for 2 h before reading on a Microbeta plate reader. Non-specific binding is determined by the addition of 10 μM cold L-691,831 compound.

Test [2] relates to synthesis of LTB4 in human whole blood. Description: Human whole blood assay (inhibition of LTB4 synthesis, calcimycin stimulated). It counts as cell-based. The following applies: heparinized human whole blood, calcimycin 20 μM, plasma LTB4. Here is the method:
Compounds are additionally tested in a human whole blood assay to determine their ability to inhibit the synthesis of LTB4 in a cellular system. Compounds are combined with heparinized human whole blood and incubated for 15 minutes at 37° C. Calcimycin (20 μM final, prepared in phosphate-buffered saline, pH 7.4) is then added and the mixture is incubated for another 30 minutes at 37° C. The samples are centrifuged for 5 min at low speed (1500×g) and the plasma layer is removed. Plasma LTB4 concentrations are then measured using an antibody-based homogenous time-resolved fluorescence method (CisBio, Bedford, Mass.).

Broadly, the IC50 is the concentration that gives 50% inhibition. Consider `COc1cncc(-c2nc(C(C)(c3ccc(-c4cnc(N)nc4)cc3)C(C)C)no2)c1` (centres unmarked) [Example 13, 5-(4-{2-[5-(5-methoxypyridin-3-yl)-1,2,4-oxadiazol-3-yl]-3-methylbutan-2-yl}phenyl)pyrimidin-2-amine], for which the 50% inhibitory concentration (IC50) in test [1] worked out at 3.6 nM; in test [2], 460 nM.
In the same order, the values of `CC(C)C(C)(c1ccc(-c2cnc(N)nc2)cc1)c1noc(-c2ccn(C)n2)n1` (centres unmarked) [Example 14, 5-(4-{3-methyl-2-[5-(1-methyl-1H-pyrazol-3-yl)-1,2,4-oxadiazol-3-yl]butan-2-yl}phenyl)pyrimidin-2-amine] are 4.6 nM and 140 nM.
In the same order, the values of `CC(C)C(C)(c1ccc(-c2cnc(N)nc2)cc1)c1noc(-c2cnn(C)c2)n1` (centres unmarked) [Example 15, 5-(4-{3-methyl-2-[5-(1-methyl-1H-pyrazol-4-yl)-1,2,4-oxadiazol-3-yl]butan-2-yl}1phenyl)pyrimidin-2-amine] are 2 nM and 46 nM.
The like results for `CC(C)[C@](C)(c1ccc(-c2cnc(N)nc2)cc1)c1noc(-c2ccn(C)n2)n1` [Example 16, 5-(4-{(2R)-3-methyl-2-[5-(1-methyl-1H-pyrazol-3-yl)-1,2,4-oxadiazol-3-yl]butan-2-yl}phenyl)pyrimidin-2-amine] were, in that order, 2.5 nM and 110 nM.
As to `CC(C)[C@@](C)(c1ccc(-c2cnc(N)nc2)cc1)c1noc(-c2ccn(C)n2)n1` [Example 17, 5-(4-{(2S)-3-methyl-2-[5-(1-methyl-1H-pyrazol-3-yl)-1,2,4-oxadiazol-3-yl]butan-2-yl}phenyl)pyrimidin-2-amine], the values for the IC50 in test [1] and in test [2] were 24 nM and 510 nM, respectively.
In the same order, the values of `CC(C)C(C)(c1ccc(-c2cnc(N)nc2)cc1)c1noc(-c2ccnn2C)n1` (centres unmarked) [Example 18, 5-(4-{3-methyl-2-[5-(1-methyl-1H-pyrazol-5-yl)-1,2,4-oxadiazol-3-yl]butan-2-yl}phenyl)pyrimidin-2-amine] are 3.3 nM and 320 nM.
In the same order, the values of `CC(C)C(C)(c1ccc(-c2cnc(N)nc2)cc1)c1noc(-c2ccn[nH]2)n1` (centres unmarked) [Example 19, 5-(4-{3-methyl-2-[5-(1H-pyrazol-5-yl)-1,2,4-oxadiazol-3-yl]butan-2-yl}phenyl)pyrimidin-2-amine] are 5.8 nM and 260 nM.
Turning to `CC(C)C(C)(c1ccc(-c2cnc(N)nc2)cc1)c1noc(-c2ncc[nH]2)n1` (centres unmarked) [Example 20, 5-(4-{2-[5-(1H-imidazol-2-yl)-1,2,4-oxadiazol-3-yl]-3-methylbutan-2-yl}phenyl)pyrimidin-2-amine], the IC50 was 10 nM in test [1] and 3200 nM in test [2].
The like results for `CC(c1ccc(-c2cnc(N)nc2)cc1)(c1noc(-c2cn[nH]c2)n1)C1CC1` (centres unmarked) [Example 21, 5-(4-{1-cyclopropyl-1-[5-(1H-pyrazol-4-yl)-1,2,4-oxadiazol-3-yl]ethyl}phenyl)pyrimidin-2-amine] were, in that order, 5.5 nM and 87 nM.
On to `Cn1cc(-c2nc(C(C)(c3ccc(-c4cnc(N)nc4)cc3)C3CC3)no2)cn1` (centres unmarked) [Example 22, 5-(4-{1-cyclopropyl-1-[5-(1-methyl-1H-pyrazol-4-yl)-1,2,4-oxadiazol-3-yl]ethyl}phenyl)pyrimidin-2-amine], for which the concentration for half-maximal inhibition (IC50) stood at 4.2 nM in test [1] and 46 nM in test [2].
As for `CC(C)[C@](C)(c1ccc(-c2cnc(N)nc2)cc1)c1noc(-c2ccn[nH]2)n1` [Example 23, 5-(4-{(2R)-3-methyl-2-[5-(1H-pyrazol-5-yl)-1,2,4-oxadiazol-3-yl]butan-2-yl}phenyl)pyrimidin-2-amine], the IC50 in test [1] was 6.9 nM; in test [2] it was 170 nM.
The like results for `CC(C)[C@@](C)(c1ccc(-c2cnc(N)nc2)cc1)c1noc(-c2ccn[nH]2)n1` [Example 24, 5-(4-{(2S)-3-methyl-2-[5-(1H-pyrazol-5-yl)-1,2,4-oxadiazol-3-yl]butan-2-yl}phenyl)pyrimidin-2-amine] were, in that order, 19 nM and 410 nM.
The like results for `CC(c1ccc(-c2cnc(N)nc2)cc1)(c1noc(-c2cc[nH]n2)n1)C1CC1` (centres unmarked) [Example 25, 5-(4-{1-cyclopropyl-1-[5-(1H-pyrazol-3-yl)-1,2,4-oxadiazol-3-yl]ethyl}phenyl)pyrimidin-2-amine] were, in that order, 6 nM and 170 nM.
Regarding `Cn1ccc(-c2nc(C(C)(c3ccc(-c4cnc(N)nc4)cc3)C3CC3)no2)n1` (centres unmarked) [Example 26, 5-(4-{1-cyclopropyl-1-[5-(1-methyl-1H-pyrazol-3-yl)-1,2,4-oxadiazol-3-yl]ethyl}phenyl)pyrimidin-2-amine], the values for the IC50 in test [1] and in test [2] were 9.1 nM and 160 nM, respectively.
`Cn1nccc1-c1nc(C(C)(c2ccc(-c3cnc(N)nc3)cc2)C2CC2)no1` (centres unmarked) [Example 27, 5-(4-{1-cyclopropyl-1-[5-(1-methyl-1H-pyrazol-5-yl)-1,2,4-oxadiazol-3-yl]ethyl}phenyl)pyrimidin-2-amine]: the 50% inhibitory concentration (IC50) amounted to 12 nM in test [1] and 330 nM in test [2].
The like results for `Cn1cnc(-c2nc(C(C)(c3ccc(-c4cnc(N)nc4)cc3)C3CC3)no2)c1` (centres unmarked) [Example 28, 5-(4-{1-cyclopropyl-1-[5-(1-methyl-1H-imidazol-4-yl)-1,2,4-oxadiazol-3-yl]ethyl}phenyl)pyrimidin-2-amine] were, in that order, 26 nM and 320 nM.
In the same order, the values of `Cc1ccc(-c2nc(C(C)(c3ccc(-c4cnc(N)nc4)cc3)C3CC3)no2)cn1` (centres unmarked) [Example 29, 5-(4-{1-cyclopropyl-1-[5-(6-methylpyridin-3-yl)-1,2,4-oxadiazol-3-yl]ethyl}phenyl)pyrimidin-2-amine] are 5.3 nM and 190 nM.
In the same order, the values of `COCCn1cc(-c2nc(C(C)(c3ccc(-c4cnc(N)nc4)cc3)C3CC3)no2)cn1` (centres unmarked) [Example 30, 5-[4-(1-cyclopropyl-1-{5-[1-(2-methoxyethyl)-1H-pyrazol-4-yl]-1,2,4-oxadiazol-3-yl}ethyl)phenyl]pyrimidin-2-amine] are 5 nM and 60 nM.
For `CC(C)[C@](C)(c1ccc(-c2cnc(N)nc2)cc1)c1noc(-c2ccnn2C)n1` [Example 31, 5-(4-{(2R)-3-methyl-2-[5-(1-methyl-1H-pyrazol-5-yl)-1,2,4-oxadiazol-3-yl]butan-2-yl}phenyl)pyrimidin-2-amine], the IC50 was found to be 1.6 nM in test [1] and 200 nM in test [2].
In the same order, the values of `CC(C)[C@@](C)(c1ccc(-c2cnc(N)nc2)cc1)c1noc(-c2ccnn2C)n1` [Example 32, 5-(4-{(2S)-3-methyl-2-[5-(1-methyl-1H-pyrazol-5-yl)-1,2,4-oxadiazol-3-yl]butan-2-yl}phenyl)pyrimidin-2-amine] are 18 nM and 2500 nM.
In the same order, the values of `Cn1cc(-c2nc(C(C)(c3ccc(-c4cnc(N)nc4)cc3)C3CCC3)no2)cn1` (centres unmarked) [Example 33, 5-(4-{1-cyclobutyl-1-[5-(1-methyl-1H-pyrazol-4-yl)-1,2,4-oxadiazol-3-yl]ethyl}phenyl)pyrimidin-2-amine] are 6.6 nM and 210 nM.
In the same order, the values of `CC(c1ccc(-c2cnc(N)nc2)cc1)(c1noc(-c2cn[nH]c2)n1)C1CCC1` (centres unmarked) [Example 34, 5-(4-{1-cyclobutyl-1-[5-(1H-pyrazol-4-yl)-1,2,4-oxadiazol-3-yl]ethyl}phenyl)pyrimidin-2-amine] are 3.7 nM and 160 nM.
